Consider 1 molecule from patent publication US20120301895A1, “METHODS OF MODULATING BINDING OF SON OF SEVENLESS TO PHOSPHATIDIC ACID AND IDENTIFYING COMPOUNDS THAT MODULATE SUCH BINDING” (THE RESEARCH FOUNDATION OF STATE UNIVERSITY OF NEW YORK, priority 2007, published 2012).

Molecules are shown by their SMILES.

For data set [1] the following is noted: mouse models, high concentrations; cited from earlier work.
Data set [2] has as its system PLD activity in T24 cells. In words: In vivo PLD activity in T24 bladder cancer cells. Type of data set: cell-based, human. Conditions: honokiol 20 μM, 4 hr. The method, then: In FIG. 17A, T24 and Calu1 cells (obtained from the American Type Culture Collection) were plated in DMEM containing 10% serum for 48 hr and then shifted to either 10% serum or 0.5% serum overnight as indicated. Honokiol (20 μM) or control ethanol was then added for 4 hr as indicated. [^3H]-Myristate was added with the honokiol. After 4 hr, BtOH (0.7%) was added for 20 min, at which time the cells were harvested and the level of phosphatidyl-BtOH (P-Bt) was determined as in FIGS. 12A-C. The experiments shown are representative of at least two independent experiments. In FIG. 17B, T24 and Calu-1 cells were plated in DMEM with 10% serum for 48 hr then changed to DMEM containing either 10% or 0.5% serum overnight as indicated. […]
For in vivo PLD activity, cells were plated in 60 mm culture dishes in DMEM with 10% serum at a density that would allow them to grow to about 80% confluence after 2 days, then cells were shifted to DMEM containing 0.5% or 10% serum as indicated in the figure legends overnight. […] Briefly, PLD activity was measured by the release of [methyl-^3H] choline from [choline-methyl-^3H]dipalmitoyl-phosphatidylcholine. […] Free [methyl-^3H] choline was separated from precipitated lipids and proteins by centrifugation and was analyzed by liquid scintillation counting. […]

On to `C=CCc1ccc(O)c(-c2ccc(O)c(CC=C)c2)c1` [honokiol, Honokiol], for which the tolerability entry in data set [1] was “well tolerated”. Also, the “stress-induced PLD activity” value in data set [2] (0.5% serum) is listed as “suppressed”. Moreover, the “PLD activity observed in the presence of serum” value in data set [2] (10% serum) was “little effect”.
